The values that follow come from patent publication EP4596561A1, “PHOSPHORUS-CONTAINING COMPOUND, PHARMACEUTICAL COMPOSITION AND USE THEREOF” (Suzhou Genhouse Bio Co., Ltd., priority 2022, dated 2024).

Data set [1] is described as follows: Stability test in liver microsomes. Type of data set: in vitro ADME. As to conditions: Human liver microsomes, 0.5 mg/mL, 1.0 µM substrate. Here is the method: (§1) Phase I metabolic stability of the test compounds in liver microsomes of CD-1 mice, Sprague-Dawley rats, and humans was assessed.
(§2) The animal and human liver microsomes used in the test system were purchased from Xenotech, Corning, or other qualified suppliers and stored in a freezer at a temperature below -60 °C prior to use. The information of the animal and human liver microsomes used was as follows:
(§3) The test samples and the reference compounds were separately incubated with animal and human liver microsomes at 37±1 °C for a period of incubation time of up to 60 min. The samples were taken out at the indicated time points, and the reaction was stopped with acetonitrile or another organic solvent containing an internal standard. After centrifugation, the resulting supernatants were assayed by the liquid chromatography-tandem mass spectrometry (LC-MS/MS) method.
(§4) Microsomes of each species were diluted into a 2× working solution with a 100 mM potassium phosphate buffer. […]
(§5) Incubation was performed in a 96-well plate. Eight incubation plates were prepared and designated T0, T5, T15, T30, T45, T60, Blank60, and NCF60, respectively. The first 6 plates corresponded to reaction time points of 0 min, 5 min, 15 min, 30 min, 45 min, and 60 min, respectively. No test sample or reference compound was added to the Blank60 plate, and samples were taken after 60 min of incubation. In the NCF60 plate, incubation was performed for 60 min using the potassium phosphate buffer instead of the NADPH regeneration system solution. Three replicates were made for samples in all conditions.
(§6) The microsomes and the test sample or reference compound were mixed, and then the incubation plates Blank60, T5, T15, T30, T45, and T60 except for T0 and NCF60 were placed in a 37 °C water bath for pre-incubation for about 10 min. In the incubation plate T0, a stop solution was first added, followed by the addition of the NADPH regeneration system working solution, and 98 µL of the potassium phosphate buffer was added to each sample well of the incubation plate NCF60 to initiate the reaction. After the pre-incubation of the incubation plates Blank60, T5, T15, T30, T45, and T60 was completed, 98 µL of the NADPH regeneration system working solution was added to each sample well to initiate the reaction. The reaction temperature was 37±1 °C, the final volume of the reaction was 200 µL, and the reaction system included 0.5 mg/mL microsomes, 1.0 µM substrate, 1 mM NADP, 6 mM ISO, and 1 unit/mL IDH.
(§7) At 5 min, 15 min, 30 min, 45 min, and 60 min, a cold stop solution containing an internal standard was added to the reaction plate to stop the reaction.
(§8) All the reaction plates after the reaction was stopped were shaken well and centrifuged at 3220× g at 4 °C for 20 min. After the supernatant was diluted at a certain ratio, LC-MS/MS analysis was performed.
(§9) Sample analysis was performed by the liquid chromatography-tandem mass spectrometry (LC-MS/MS) method without standard curves and quality control samples. Semi-quantitative determination was performed according to the ratio of the analyte peak area to the internal standard peak area. The retention times of the analyte and internal standard, the chromatogram acquisition, and chromatogram integration were processed using the Analyst software (Sciex, Framingham, Massachusetts, USA).
(§10) According to the well stir model, the hepatic intrinsic clearance and hepatic clearance can be converted through the following formula. CL(liver) = (CLint(liver)×Qh)/(CLint(liver)+Qh) [formula]

Data set [2] is described as follows: Stability test in liver microsomes. It counts as in vitro ADME, CD-1 mouse. As to conditions: mouse liver microsomes, 0.5 mg/mL, 1.0 µM substrate. The method, then: as §1, §2, §3, §4, §5, §6, §7, §8, §9, §10
Data set [3] can be described thus: Pharmacokinetic test in rats. It counts as in vivo. As to conditions: rat, plasma, SD rats; for bioavailability: PO 10 mg/kg vs IV 2 mg/kg. The method, then:
In this experimental example, the pharmacokinetic behavior of the test compounds after administration by intravenous injection (IV) and oral gavage (PO) in SD rats was tested. Preparation of formulations for administration referred to the low-dose pharmacokinetic test in mice.
On the day of administration, rats were weighed for actual body weight, and the administration volume was calculated. Each compound was tested in two groups with 3 rats in each group; one group was subjected to administration by single intravenous injection, and the other group was subjected to administration by single gavage. The whole blood samples were collected via the jugular vein at prescribed time points (0.25 h, 0.5 h, 1 h, 2 h, 4 h, 8 h, and 24 h after administration). After the blood sample collection, the samples were immediately transferred to labeled commercial sample tubes containing K2-EDTA (0.85-1.15 mg), followed by centrifugation (3200× g, 4 °C, 10 min) and plasma collection. The plasma was transferred to a pre-cooled centrifuge tube, frozen in dry ice, and then stored in an ultra-low temperature freezer at -60 °C or lower until the LC-MS/MS analysis was performed.
Plasma concentrations were determined by the LC-MS/MS method. Plasma drug concentration data for the compounds were processed using a non-compartmental model in the WinNonlin Version 6.3 (Pharsight, Mountain View, CA) pharmacokinetic software. The relevant pharmacokinetic parameters were calculated by a linear-log trapezoidal method.

Data set [4] has as its system H226 cells. The experiment in a line: Pharmacodynamic test, H226 subcutaneous xenograft. It counts as in vivo, nude mice (BALB/c nu/nu). The method, then: Healthy female nude mice (BALB/c nu/nu) aged 6-8 weeks were housed in an SPF environment in accordance with animal ethical guidelines. The well-growing 10^7 H226 cells were harvested through trypsin digestion, washed in phosphate-buffered saline (PBS), and then resuspended in PBS containing 50% matrigel (BD Biosciences).
Subcutaneous injection was then performed at the dorsolateral sites of the mice, and the tumor volume was measured once every three days thereafter. When the tumor volume reached around 150-200 mm^3, the mice were randomly assigned to different treatment groups. Any one of the compounds described herein was prepared accordingly and administered at an appropriate dose. Finally, the tumor growth in the nude mice was analyzed after 4 to 6 weeks based on the growth of the tumors.

The nature of data set [5]: Saturated solubility in FaSSIF solution. The note with it: room temperature, stirred overnight. Type of data set: physicochemical. The method, then: Efficacy Experimental Example 9: Test of Saturated Solubility of Samples in FaSSIF Solution
About 0.21 g of sodium hydroxide, about 2.24 g of sodium dihydrogen phosphate dihydrate, and 3.09 g of sodium chloride were weighed out and dissolved in 500 mL of water, and after dissolution, the pH was adjusted to 6.5 with 1 N sodium hydroxide or 1 N hydrochloric acid.
112 mg of FaSSIF solid was weighed out and placed in a 50 mL volumetric flask, and the buffer described above was added for dissolution. The resulting solution was diluted to volume, mixed well, and left to stand at room temperature for 2 h or more.
Test sample: About 1 mg of the test sample was taken, and 1 mL of FaSSIF solution was added. The mixture was stirred at room temperature overnight and centrifuged, and the supernatant was collected and injected for analysis.
Reference sample solution: About 1.5 mg of the test sample was precisely weighed out and placed in a 50 mL volumetric flask, and DMF was added for dissolution. The resulting solution was diluted to volume and mixed well.
The peak of the main component of the reference sample and the peak of the test sample with the same retention time were integrated, and the concentration thereof in the FaSSIF solution was calculated according to the external standard method.

In general, half-life refers to the time needed for the level to fall by half in the phase considered. One may read the AUC(0-t) as exposure summed from dosing to a finite time, without extrapolation to infinity. High values mean more exposure, low ones less exposure. In general, MRT refers to a mean duration of stay, worked out from the concentration-time curve. The term clearance denotes a measure of how efficiently the substance is removed, as volume per time. Read a low clearance as inefficient removal. As for `CP(C)(=O)c1ccc2c(c1)c1ccccc1n2-c1ccc(C(F)(F)F)cc1` [Example 1], the half-life at 1 µM in data set [1] is greater than 2.42 h. In data set [2], this molecule returned a half-life at 1 µM greater than 2.42 h. In addition, in data set [3] (IV 2 mg/kg), the AUC(0-t) was found to be 113 µM·h, the mean residence time (MRT) was found to be 46.3 h, the clearance was 0.333 mL/min/kg and the half-life was 32.4 h. In data set [3] (PO 10 mg/kg), this molecule showed an AUC(0-t) of 605 µM·h, a mean residence time (MRT) of 69.9 h and a half-life of 66.9 h. For the same molecule, the bioavailability in data set [3] came to 107%. Further, the TGI in data set [4] (50mpk QD) was determined as 50mpk QD TGI = 108.39%. For the same molecule, in data set [4] (100mpk QD), the TGI was 100mpk QD TGI = 113.05%. For the same molecule, in data set [5], the “FaSSIF(pH = 6.5)” value was greater than 950.5 ug/mL.
In the case of `CP(C)(=O)c1ccc2c(c1)c1cccnc1n2-c1ccc(C(F)(F)F)cc1` [Example 5], the “FaSSIF(pH = 6.5)” value in data set [5] is listed as 781.7 ug/mL.
As to `CP(C)(=O)c1ccc2c(Oc3ccc(C(F)(F)F)cc3)cccc2c1` [Example 7], the half-life at 1 µM in data set [1] was greater than 2.42 h. In data set [2], the half-life at 1 µM was greater than 2.42 h. In data set [3] (IV 2 mg/kg), this molecule showed an AUC(0-t) of 44.5 µM·h, an MRT of 20.5 h, a clearance of 2 mL/min/kg and a half-life of 15.7 h. Besides, in data set [3] (PO 10 mg/kg), the AUC(0-t) was 308 µM·h, the MRT is 28.5 h and the half-life is 19.5 h. Besides, the bioavailability in data set [3] worked out at 142%. Also, the TGI in data set [4] (5mpk QD) is recorded as 5mpk QD TGI = 111.84%. In addition, the “FaSSIF(pH = 6.5)” value in data set [5] is on record as 1499.5 ug/mL.
For the molecule `Cn1cnc(-c2cc(P(C)(C)=O)cnc2Nc2ccc(C(F)(F)F)cc2)c1` [Example 8], the half-life at 1 µM in data set [1] was greater than 2.42 h. In data set [2], this molecule had a half-life at 1 µM greater than 2.42 h. In data set [3] (IV 2 mg/kg), the AUC(0-t) amounted to 8.89 µM·h, the mean residence time (MRT) is 7.8 h, the clearance was 9 mL/min/kg and the half-life is 6.2 h. For the same molecule, in data set [3] (PO 10 mg/kg), the AUC(0-t) amounted to 59.3 µM·h, the MRT worked out at 20.6 h and the half-life was 14.7 h. In addition, the bioavailability in data set [3] is 133%. Moreover, in data set [4] (10mpk QD), the TGI is given as 10mpk QD TGI = 115.60%. Moreover, the “FaSSIF(pH = 6.5)” value in data set [5] came out at 433.97 ug/mL.
`CP(C)(=O)c1ccc(Nc2ccc(C(F)(F)F)cc2)c(-c2ccccn2)c1` [Example 10]: in data set [1], the half-life at 1 µM is greater than 2.42 h. In data set [2], this molecule returned a half-life at 1 µM greater than 2.42 h. Besides, in data set [3] (IV 2 mg/kg), the AUC(0-t) was determined as 21.7 µM·h, the MRT stood at 26.5 h, the clearance is 3 mL/min/kg and the half-life was 19 h. In data set [3] (PO 10 mg/kg), this molecule showed an AUC(0-t) of 152 µM·h, an MRT of 25.7 h and a half-life of 17.8 h. Moreover, in data set [3], the bioavailability came out at 140%. Further, the TGI in data set [4] (25mpk QD) is 25mpk QD TGI = 100.89%. Besides, the “FaSSIF(pH = 6.5)” value in data set [5] was determined as 89.75 ug/mL.
Take `CP(C)(=O)c1ccc(Nc2ccc(C(F)(F)F)cc2)c(-c2ncccn2)c1` [Example 12]: in data set [1], the half-life at 1 µM is greater than 2.42 h. This molecule also came in with a half-life at 1 µM in data set [2] greater than 2.42 h. Further, in data set [3] (IV 2 mg/kg), the AUC(0-t) stood at 34.9 µM·h, the MRT turned out to be 76.3 h, the clearance is 1.17 mL/min/kg and the half-life was 54.2 h. In data set [3] (PO 10 mg/kg), this molecule gave an area under the curve AUC(0-t) of 114 µM·h, an MRT of 24.9 h and a half-life of 21.8 h. In addition, the bioavailability in data set [3] amounted to 65%. The TGI in data set [4] (50mpk QD) is on record as 50mpk QD TGI = 111.58%.
In turn, `Cn1cnc(-c2cc(P(C)(C)=O)ccc2Nc2ccc(C(F)(F)F)cc2)c1` [Example 14] displayed a half-life at 1 µM in data set [1] greater than 2.42 h. In data set [2], the half-life at 1 µM was greater than 2.42 h. In data set [3] (IV 2 mg/kg), this molecule had an AUC(0-t) of 16.9 µM·h, an MRT of 10.2 h, a clearance of 4.67 mL/min/kg and a half-life of 8.1 h. In data set [3] (PO 10 mg/kg), the area under the curve AUC(0-t) is 83.2 µM·h, the MRT is 15 h and the half-life was 10.9 h. In addition, the bioavailability in data set [3] amounted to 98%. In addition, in data set [4] (10mpk QD), the TGI turned out to be 10mpk QD TGI = 100.38%. Also, the “FaSSIF(pH = 6.5)” value in data set [5] stood at 674.6 ug/mL.
With `CP(C)(=O)c1cnc(Nc2ccc(C(F)(F)F)cc2)c(-c2cn3c(n2)CCC3)c1` [Example 22], the half-life at 1 µM in data set [1] is greater than 2.42 h. Also, the half-life at 1 µM in data set [2] was greater than 2.42 h. In data set [3] (IV 2 mg/kg), this molecule showed an AUC(0-t) of 6.42 µM·h, an MRT of 7.6 h, a clearance of 11 mL/min/kg and a half-life of 5.8 h. In data set [3] (PO 10 mg/kg), this molecule showed an AUC(0-t) of 32.2 µM·h, a mean residence time (MRT) of 9.6 h and a half-life of 7.3 h. Also, in data set [3], the bioavailability turned out to be 95%. Also, the TGI in data set [4] (10mpk QD) is on record as 10mpk QD TGI = 106.26%. Further, the TGI in data set [4] (30mpk QD) came to 30mpk QD TGI = 113.45%. Besides, the “FaSSIF(pH = 6.5)” value in data set [5] is recorded as 337.6 ug/mL.
For the molecule `Cc1ccc(Oc2ccc(C(F)(F)F)cc2)c2ccc(P(C)(C)=O)cc12` [Example 24], the half-life at 1 µM is 2.77 h in data set [1] and 1.98 h in data set [2]. Moreover, the “FaSSIF(pH = 6.5)” value in data set [5] is 193.3 ug/mL.
